Values of other authors in patent US20080175908A1, “TABLET-IN-TABLET COMPOSITIONS” (Wyeth, priority 2007, published 2008).

Key:
uterine response = conditions: preclinical models of uterine stimulation
[1] = system: ovariectomized rat model of osteopenia
[2] = system: MCF-7 cell line (human breast cancer cell line)

Cc1c(-c2ccc(O)cc2)n(Cc2ccc(OCCN3CCCCCC3)cc2)c2ccc(O)cc12 [bazedoxifene acetate, 1-[4-(2-azepan-1-yl-ethoxy)-benzyl]-2-(4-hydroxy-phenyl)-3-methyl-1H-indol-5-ol acetic acid]
stimulation of uterine response (uterine response): little or no stimulation of uterine response | prevention of bone loss [1]: estrogen agonist-like effect in preventing bone loss | reduction of cholesterol [1]: reducing cholesterol | estrogen antagonist behaviour [2]: behaves as an estrogen antagonist
